Data as given in patent US20260174829A1, “METHODS OF REDUCING TYPE 2 CYTOKINE-MEDIATED INFLAMMATION USING NEUROMEDIN PEPTIDES” (Rutgers, The State University of New Jersey, priority 2018, published 2026).

B1: IL-33: cytokine known to promote ILC2 activation (protein, UniProt O95760 1-270, looked up)
Interleukin-33: MKPKMKYSTNKISTAKWKNTASKALCFKLGKSQQKAKEVCPMYFMKLRSGLMIKKEACYFRRETTKRPSLKTGRKHKRHLVLAACQQQSTVECFAFGISGVQKYTRALHDSSITGISPITEYLASLSTYNDQSITFALEDESYEIYVEDLKKDEKKDKVLLSYYESQHPSNESGDGVDGKMLMVTLSPTKDFWLHANNKEHSVELHKCEKPLPDQAFFVLHNMHSNCVSFECKTDPGVFIGVKDNHLALIKVDSSENLCTENILFKLSET
B2: IL-25: activating cytokine used in ILC2 cultures (protein, UniProt Q9H293 33-177, looked up)
Interleukin-25: YSHWPSCCPSKGQDTSEELLRWSTVPVPPLEPARPNRHPESCRASEDGPLNSRAISPWRYELDRDLNRLPQDLYHARCLCPHCVSLQTGSHMDPRGNSELLYHNQTVFYRRPCHGEKGTHKGYCLERRLYRVSLACVCVRPRVMG
B3: IL-4: cytokine known to promote ILC2 activation (protein, UniProt P05112 25-153, looked up)
Interleukin-4: HKCDITLQEIIKTLNSLTEQKTLCTELTVTDIFAASKNTTEKETFCRAATVLRQFYSHHEKDTRCLGATAQQFHRHKQLIRFLKRLDRNLWGLAGLNSCPVKEANQSTLENFLERLKTIMREKYSKCSS

How the values were obtained:
TH2 cells = assay: Anti-CD3/anti-CD28 stimulated lymph node cells (day 7 post-Nb), IL-5/IL-13 ELISA; format: cell-based, mouse; settings: LN cells day 7 post-Nb, anti-CD3 and anti-CD28, 48 hours
Protocol: FIGS. 7A-7I. Nmb treatment is sufficient to suppress allergic airway inflammation. Mice challenged with papain were treated with PBS or Nmb (i.t.) and (A) Lung ILC2s, (B) IL-5+ and IL-13+ ILC2s, and (C) eosinophils were evaluated. […] Mesenteric lymph nodes (MLNs) were isolated on day 7 post-Nb and single cells suspensions were treated with anti-CD3 and anti-CD28 in the presence or absence of Nmb for 48 hours and (E), IL-5 and (F) IL-13 were quantified in cell-free supernatants by ELISA. (F-I), Modified versions of Nmb (see Table 2) were tested for their ability to alter IL-5 and IL-13 production from anti-CD3 and anti-CD28 MLN cells isolated on day 7 post-Nb. P values were determined by two-tailed Student's t-tests. Blue asterisks represent comparisons between media treated controls and native Nmb. Red asterisks represent comparisons between media treated controls and modified version of Nmb as described in Table 2. (*,p<0.05), (**,p<0.01), (***,p<0.001) or (F-I).
FIGS. 8A-8B. Mesenteric lymph nodes (MLNs) were isolated on day 7 post-Nb and single cells suspensions were treated with anti-CD3 and anti-CD28 in the presence or absence of native Nmb or modified versions of the peptide for 48 hours and (A), IL-5 and (B) IL-13 were quantified in cell-free supernatants by ELISA. P values were determined by two-tailed Student's t-tests. Blue asterisks represent comparisons between media treated controls and native Nmb. Red asterisks represent comparisons between media treated controls and modified version of Nmb as described in Table 2. (*,p<0.05), (**,p<0.01), (***,p<0.001).
At the time points evaluated post-Nb, the majority of the type 2 cytokines are ILC2-derived (14) and any effects Nmb is having on TH2 cell responses may be difficult to detect. To address this, lung-draining LNs were isolated on day 7 post-Nb and stimulated with anti-CD3 and -CD28 to activate T cells in both the presence of absence of recombinant Nmb. LN cells treated with anti-CD3 and -CD28 produced increased amounts of IL-5, and IL-13 (FIGS. 7D, 7E).
Thus, Nmb can be employed to reduce type 2 cytokine-mediated inflammation. Native Nmb is a 10-mer peptide (SEQ ID NO: 1) that operates via its ability to bind the Nmb receptor (15). This example describes the results of an alanine scan to systematically replace various residues of the Nmb with alanine (Table 2) and the resulting ability of the variant Nmb peptides to inhibit type 2 cytokine production by TH2 cells. Further, caps were added to the native form of Nmb (SEQ ID NO: 1) and its bioactivity monitored (FIG. 5A).

NMBR expression by ILC2s = assay: NMBR expression by cultured lung ILC2s, flow cytometry; format: cell-based, mouse; settings: ILC2s day 7 post-Nb; for NMBR expression by ILC2s: survival and/or activating cytokines, day 4 post-culture; for NMBR expression levels on ILC2s: IL-2 and IL-7, overnight culture
Description: FIG. 9. Basophils regulate NMBR expression. ILC2s were sort-purified from the lung of Nb-infected mice (day 7) and stimulated with survival cytokines (IL-7 and IL-2) and also with activated basophils, IL-4 or IL-33 overnight. NMBR expression was monitored by flow cytometric analysis post-culture. Data are presented as […] mean fluorescent intensity (GMFI). Statistical comparisons were done using a Student's t-test.
FIG. 14. Prostaglandin E2 upregulates expression of NMBR on lymphocytes. Lung ILC2s were sort-purified from the lungs of mice on day 7 post-Nb and cultured with a combination of survival cytokines (IL-2 and IL-7) and/or activating cytokines (IL-25 and IL-33). In addition, cultures were treated with NMB or prostaglandin E2 (PGE2) and the expression of NMBR was measured by flow cytometric analysis on day 4 post-culture. Statistical analysis was performed using a student's t-test. Negative NMBR staining as determined by an isotype control antibody is also shown (Isot).
NMBR expression by lung ILC2s was reduced when basophils are depleted following an Nb infection. To determine whether basophils directly mediate expression of NMBR or whether they operate through intermediate pathways, ILC2s were sort-purified from the lungs of Nb-infected mice (day 7) and cultured with the survival cytokines IL-2 and IL-7. Additionally, the ILC2s were cultured with activated basophils, IL-4, or IL-33 overnight. NMBR expression was subsequently monitored by flow cytometric analysis post-culture.
To better determine the mechanisms through which basophils regulate expression of NMBR on lymphocytes, ILC2s were cultured with a combination of survival and activating cytokines in the presence or absence of NMB or prostaglandin E2 (PGE2).

Row | Molecule | capacity to inhibit IL-5 production compared to native Nmb (TH2 cells) | capacity to inhibit IL-13 production compared to native Nmb (TH2 cells) | other results
1 | H2N-GNLWATGH-amide (H-GNLWATGH-NH2) [X] | significant enhanced capacity | enhanced capacity | –
2 | H2N-GNLWTGHFM-amide (H-GNLWTGHFM-NH2) [R] | reduced capacity | enhanced capacity | –
3 | H2N-GNLWATGHAM-amide (H-GNLWATGHAM-NH2) | – | significantly reduced capacity | –
4 | H2N-GNLWATAHFM-amide (H-GNLWATAHFM-NH2) | significantly reduced capacity | significantly reduced capacity | –
5 | CCCCC[C@H](O)/C=C/[C@H]1[C@H](O)CC(=O)[C@@H]1C/C=C\CCCC(=O)O [PGE2, prostaglandin E2, reference compound] | – | – | NMBR expression by ILC2s (NMBR expression by ILC2s): significantly upregulated
6 | H2N-LWATGHF-amide (H-LWATGHF-NH2) [AC] | – | enhanced capacity | –
7 | Ac-GLLWATGHFM-amide (Ac-GLLWATGHFM-NH2) [J] | – | significantly greater capacity | –
8 | H2N-GNLWATGHM-amide (H-GNLWATGHM-NH2) [V] | reduced capacity | reduced capacity | –
9 | H2N-LWATGHFM-amide (H-LWATGHFM-NH2) [Z] | – | enhanced capacity | –
10 | H2N-GALWATGHFM-amide (H-GALWATGHFM-NH2) [B] | – | significantly greater capacity | –
11 | H2N-LWATGH-amide (H-LWATGH-NH2) [AG] | significant enhanced capacity | enhanced capacity | –
12 | H2N-GNLWATGHF-amide (H-GNLWATGHF-NH2) | reduced capacity | – | –
13 | H2N-NLWATGHF-amide (H-NLWATGHF-NH2) [Y] | significant enhanced capacity | enhanced capacity | –
14 | H2N-NLWATGHFM-amide (H-NLWATGHFM-NH2) | reduced capacity | – | –
15 | H2N-GNLWATGHFA-amide (H-GNLWATGHFA-NH2) | – | significantly greater capacity | –
16 | H2N-GNWATGHFM-amide (H-GNWATGHFM-NH2) [P] | reduced capacity | – | –

Row | Molecule | capacity to inhibit IL-5 production compared to native Nmb (TH2 cells) | capacity to inhibit IL-13 production compared to native Nmb (TH2 cells) | other results
17 | H2N-ANLWATGHFM-amide (H-ANLWATGHFM-NH2) | – | significantly greater capacity | –
18 | H2N-GNAWATGHFM-amide (H-GNAWATGHFM-NH2) [C] | significantly reduced capacity | significantly greater capacity | –
19 | Methanesulfonyl-GNLWATGHFM-amide [K] | significantly reduced capacity | significantly greater capacity | –
20 | H2N-WATGHF-amide (H-WATGHF-NH2) [AH] | significant enhanced capacity | enhanced capacity | –
21 | H2N-GNLWATGHFM-NHMe | – | significantly greater capacity | –
22 | H2N-WATGHFM-amide (H-WATGHFM-NH2) [AD] | – | enhanced capacity | –
23 | H2N-NLWATGH-amide (H-NLWATGH-NH2) [AB] | – | enhanced capacity | –
24 | H2N-GNLAATGHFM-amide (H-GNLAATGHFM-NH2) | – | significantly greater capacity | –
25 | H2N-GNLWATHFM-amide (H-GNLWATHFM-NH2) | – | enhanced capacity | –
26 | H2N-GLWATGHFM-amide (H-GLWATGHFM-NH2) [O] | reduced capacity | – | –
27 | H2N-GNLWATGFM-amide (H-GNLWATGFM-NH2) [U] | reduced capacity | – | –
28 | H2N-GNLWATG-amide (H-GNLWATG-NH2) [AA] | significant enhanced capacity | enhanced capacity | –
29 | H2N-ATGHFM-amide (H-ATGHFM-NH2) [AI] | – | enhanced capacity | –
30 | B1 | – | – | NMBR expression levels on ILC2s (NMBR expression by ILC2s): no changes; NMBR expression by ILC2s (NMBR expression by ILC2s): failed to upregulate
31 | B2 | – | – | NMBR expression by ILC2s (NMBR expression by ILC2s): failed to upregulate
32 | B3 | – | – | NMBR expression levels on ILC2s (NMBR expression by ILC2s): no changes
